Numbers after ± are expanded uncertainties.
Experiment: molar heat capacity at constant pressure
Conditions: 101.33 kPa, Crystal, Vacuum adiabatic calorimetry

C(#Cc1ccccc1)c1ccccc1 [1,2-diphenylethyne]
Conditions | molar heat capacity at constant pressure [J/K/mol]
5 K | 0.4461 ± 0.018
7.76 K | 1.66 ± 0.04
8.24 K | 1.997 ± 0.046
8.4 K | 2.155 ± 0.049
8.56 K | 2.246 ± 0.051
8.71 K | 2.325 ± 0.053
8.87 K | 2.454 ± 0.056
9.02 K | 2.473 ± 0.056
9.17 K | 2.661 ± 0.06
9.32 K | 2.644 ± 0.059
9.46 K | 2.813 ± 0.063
9.61 K | 3.003 ± 0.067
9.75 K | 3.203 ± 0.071
9.9 K | 3.352 ± 0.074
10 K | 3.39 ± 0.076
10.04 K | 3.408 ± 0.076
10.23 K | 3.58 ± 0.079
10.46 K | 3.861 ± 0.085
10.7 K | 4.163 ± 0.091
10.94 K | 4.495 ± 0.098
11.19 K | 4.753 ± 0.1
11.43 K | 4.952 ± 0.11
11.67 K | 5.282 ± 0.11
11.92 K | 5.556 ± 0.12
12.16 K | 5.878 ± 0.13
12.4 K | 6.207 ± 0.13
12.65 K | 6.564 ± 0.14
12.9 K | 6.777 ± 0.14
13.14 K | 7.156 ± 0.15
13.39 K | 7.478 ± 0.16
13.65 K | 7.835 ± 0.17
13.9 K | 8.246 ± 0.17
14.15 K | 8.579 ± 0.18
14.4 K | 8.944 ± 0.19
14.66 K | 9.243 ± 0.19
14.91 K | 9.637 ± 0.2
15.16 K | 9.985 ± 0.21
15.42 K | 10.37 ± 0.22
15.67 K | 10.79 ± 0.23
15.93 K | 11.12 ± 0.23
16.19 K | 11.5 ± 0.24
16.44 K | 11.93 ± 0.25
16.7 K | 12.28 ± 0.26
16.96 K | 12.67 ± 0.26
17.22 K | 13.04 ± 0.27
17.48 K | 13.53 ± 0.28
17.74 K | 13.89 ± 0.29
18 K | 14.4 ± 0.3
18.26 K | 14.75 ± 0.3
18.52 K | 15.13 ± 0.31
18.78 K | 15.54 ± 0.32
19.05 K | 15.99 ± 0.33
19.31 K | 16.45 ± 0.34
19.57 K | 16.8 ± 0.35
19.83 K | 17.2 ± 0.35
20 K | 17.46 ± 0.36
20.1 K | 17.57 ± 0.36
20.52 K | 18.22 ± 0.17
21.06 K | 19.09 ± 0.17
21.59 K | 19.97 ± 0.18
22.13 K | 20.72 ± 0.19
22.66 K | 21.52 ± 0.19
23.2 K | 22.37 ± 0.2
23.74 K | 23.22 ± 0.21
24.28 K | 24.1 ± 0.21
24.82 K | 25 ± 0.22
25 K | 25.27 ± 0.22
25.36 K | 25.89 ± 0.23
25.9 K | 26.74 ± 0.23
26.44 K | 27.46 ± 0.24
26.99 K | 28.2 ± 0.24
27.53 K | 29.01 ± 0.25
28.08 K | 29.84 ± 0.26
28.62 K | 30.62 ± 0.26
29.17 K | 31.47 ± 0.27
29.72 K | 32.26 ± 0.27
30 K | 32.68 ± 0.27
30.27 K | 33.13 ± 0.28
30.82 K | 33.87 ± 0.28
31.36 K | 34.72 ± 0.29
31.91 K | 35.51 ± 0.3
32.46 K | 36.31 ± 0.3
33.02 K | 37.01 ± 0.31
33.57 K | 37.75 ± 0.31
34.12 K | 38.45 ± 0.32
34.67 K | 39.14 ± 0.33
35 K | 39.59 ± 0.33
35.23 K | 39.87 ± 0.33
35.78 K | 40.61 ± 0.34
36.33 K | 41.23 ± 0.34
36.89 K | 41.86 ± 0.35
37.44 K | 42.57 ± 0.35
38 K | 43.15 ± 0.36
38.56 K | 43.79 ± 0.36
39.11 K | 44.41 ± 0.37
39.67 K | 45.07 ± 0.37
40 K | 45.41 ± 0.38
40.22 K | 45.63 ± 0.38
40.78 K | 46.31 ± 0.38
41.33 K | 46.9 ± 0.39
41.89 K | 47.45 ± 0.39
42.45 K | 48.18 ± 0.4
43 K | 48.73 ± 0.4
43.56 K | 49.34 ± 0.41
44.12 K | 49.91 ± 0.41
44.67 K | 50.46 ± 0.42
45 K | 50.83 ± 0.42
45.23 K | 51.09 ± 0.42
45.79 K | 51.68 ± 0.43
46.35 K | 52.17 ± 0.43
46.91 K | 52.71 ± 0.43
47.47 K | 53.2 ± 0.44
48.03 K | 53.68 ± 0.44
48.59 K | 54.18 ± 0.45
49.15 K | 54.59 ± 0.45
49.71 K | 55.12 ± 0.45
50 K | 55.37 ± 0.46
50.26 K | 55.73 ± 0.46
50.82 K | 56.2 ± 0.46
51.38 K | 56.69 ± 0.47
51.94 K | 57.24 ± 0.47
52.5 K | 57.84 ± 0.48
53.06 K | 58.52 ± 0.48
53.62 K | 59.22 ± 0.49
54.18 K | 59.95 ± 0.49
54.74 K | 60.54 ± 0.5
55 K | 60.87 ± 0.5
55.3 K | 61.31 ± 0.5
55.87 K | 61.85 ± 0.51
56.43 K | 62.34 ± 0.51
56.99 K | 62.76 ± 0.52
57.55 K | 63.28 ± 0.52
58.11 K | 63.73 ± 0.52
58.67 K | 64.14 ± 0.53
59.23 K | 64.53 ± 0.53
59.8 K | 64.94 ± 0.53
60 K | 65.09 ± 0.54
60.36 K | 65.36 ± 0.54
60.92 K | 65.81 ± 0.54
61.48 K | 66.28 ± 0.54
62.04 K | 66.76 ± 0.55
62.6 K | 67.25 ± 0.55
63.16 K | 67.82 ± 0.56
63.73 K | 68.11 ± 0.56
64.29 K | 68.62 ± 0.56
64.85 K | 68.97 ± 0.57
65 K | 69.08 ± 0.57
65.42 K | 69.41 ± 0.57
65.98 K | 69.58 ± 0.57
66.54 K | 69.95 ± 0.57
67.11 K | 70.3 ± 0.58
67.67 K | 70.73 ± 0.58
68.23 K | 71.09 ± 0.58
68.8 K | 71.47 ± 0.59
69.36 K | 71.95 ± 0.59
69.92 K | 72.22 ± 0.59
70 K | 72.22 ± 0.59
70.61 K | 72.52 ± 0.59
71.41 K | 72.9 ± 0.6
72.21 K | 73.45 ± 0.6
73.01 K | 73.99 ± 0.61
73.82 K | 74.48 ± 0.61
74.62 K | 74.91 ± 0.61
75 K | 75.15 ± 0.62
75.42 K | 75.39 ± 0.62
76.23 K | 75.72 ± 0.62
77.03 K | 76.12 ± 0.62
77.83 K | 76.43 ± 0.63
78.64 K | 76.81 ± 0.63
79.44 K | 77.36 ± 0.63
80 K | 77.65 ± 0.64
80.24 K | 77.8 ± 0.64
81.05 K | 78.26 ± 0.64
81.85 K | 78.59 ± 0.64
82.56 K | 78.83 ± 0.65
82.65 K | 79 ± 0.65
83.36 K | 79.36 ± 0.65
83.46 K | 79.49 ± 0.65
84.16 K | 79.79 ± 0.65
84.26 K | 79.97 ± 0.66
84.96 K | 80.29 ± 0.66
85 K | 80.26 ± 0.66
85.77 K | 80.6 ± 0.66
86.57 K | 81.07 ± 0.66
87.37 K | 81.61 ± 0.67
88.17 K | 81.87 ± 0.67
88.98 K | 82.43 ± 0.68
89.78 K | 82.92 ± 0.68
90 K | 82.96 ± 0.69
90.58 K | 83.29 ± 0.7
91.39 K | 83.69 ± 0.7
92.19 K | 84.3 ± 0.7
92.99 K | 84.62 ± 0.71
93.8 K | 85.08 ± 0.71
94.6 K | 85.51 ± 0.71
95 K | 85.79 ± 0.72
95.4 K | 85.87 ± 0.72
96.21 K | 86.49 ± 0.72
97.01 K | 86.97 ± 0.72
97.81 K | 87.46 ± 0.73
98.61 K | 87.8 ± 0.73
99.42 K | 88.33 ± 0.74
100 K | 88.7 ± 0.74
100.22 K | 88.79 ± 0.74
101.02 K | 89.52 ± 0.74
101.82 K | 89.71 ± 0.75
102.62 K | 90.12 ± 0.75
103.42 K | 90.81 ± 0.76
104.22 K | 91.27 ± 0.76
105.03 K | 91.64 ± 0.76
105.84 K | 92.04 ± 0.77
106.64 K | 92.61 ± 0.77
107.45 K | 93.03 ± 0.77
108.25 K | 93.65 ± 0.78
109.06 K | 94.16 ± 0.78
109.87 K | 94.48 ± 0.78
110 K | 94.56 ± 0.79
110.68 K | 94.84 ± 0.79
111.49 K | 95.38 ± 0.79
112.3 K | 95.96 ± 0.8
113.12 K | 96.26 ± 0.8
113.93 K | 96.77 ± 0.8
114.74 K | 97.3 ± 0.81
115.56 K | 97.84 ± 0.81
116.37 K | 98.29 ± 0.81
117.19 K | 98.7 ± 0.82
118.01 K | 99.29 ± 0.82
118.83 K | 99.69 ± 0.82
119.65 K | 100.31 ± 0.83
120 K | 100.39 ± 0.83
120.47 K | 100.58 ± 0.83
121.29 K | 101.29 ± 0.84
122.11 K | 101.7 ± 0.84

Reference: the NIST ThermoML archive (doi:10.1021/je200673a)
